# In patent publication US7723473B2, “Peptide antagonists of TGF-beta family members and therapeutic uses thereof” (St. Louis University, priority 1997, dated 2010):
# Legend:
# [1] = test system: TGF-β receptors; experiment: Inhibition of specific binding of 125I-TGF-β1 to TGF-β receptors in mink lung epithelial cells; settings: peptide at 34 μM
# Description: Specific binding of ^125I-labeled TGF-β1, TGF-β2, and TGF-β3 (^125I-TGF-β1, ^125I-TGF-β2, and ^125I-TGF-β3) to TGF-β receptors in mink lung epithelial cells. ^125I-TGF-β1, ^125I-TGF-β2, and ^125I-TGF-β3 were prepared by iodination of TGF-β1, TGF-β2, and TGF-β3 with Na^125I as described previously (Ref. 7). The specific radioactivities of ^125I-TGF-β1, ^125I-TGF-β2, and ^125I-TGF-β3 were 1-3×10^5 cpm/ng. Mink lung epithelial cells were grown on 24-well clustered dishes to near confluence in Dulbecco's modified Eagle medium (DMEM) containing 10% fetal calf serum. The epithelial cells were incubated with 0.1 nM ^125I-TGF-β1, ^125I-TGF-β2, or ^125I-TGF-β3 both with and without 100-fold excess of unlabeled TGF-β1, TGF-β2, or TGF-β3 in binding buffer (Ref. 7). After 2.5 hr at 0° C., the cells were washed two times with binding buffer, and the cell-associated radioactivity was determined. […] All experiments were carried out in triplicate cell cultures.
# [2] = test system: mink lung epithelial cells; experiment: Blocking of TGF-β1-induced growth inhibition ([methyl-3H]thymidine incorporation, DNA synthesis); format: cell-based
# Description: [Methyl-^3H]thymidine Incorporation—Mink lung epithelial cells grown on 24-well clustered dishes were incubated with various concentrations of TGF-β1 in the presence and absence of peptide β1^25 (41-65) or with various concentrations of peptide β1^25 (41-65)-CA, and peptide β1^25 (41-65)-BSA in DMEM containing 0.1% fetal calf serum. After 16 hr at 37° C., the cells were pulsed with 1 μCi/ml of [methyl-^3H]thymidine for 4 hr. The cells were then washed twice with 1 ml of 10% trichloroacetic acid and once with 0.5 ml of ethanol:ether (2:1, v/v). The cells were then dissolved in 0.4 ml of 0.2 N NaOH and counted with a liquid scintillation counter.
# [3] = test system: PAI-1 expression; experiment: PAI-1 expression in mink lung epithelial cells (Northern blot); format: cell-based; settings: 0.25 ρM and 2.5 ρM TGF-β1
# Description: RNA Analysis—Mink lung epithelial cells were grown overnight in 12-well clustered dishes in DMEM containing 10% fetal calf serum. The medium was then changed to DMEM containing 0.1% fetal calf serum and the cells were incubated with 0.25 and 2.5 ρM TGF-β1 in the presence of various concentrations of peptide β1^25 (41-65) for 2.5 hr. Total cellular RNA was extracted using RNAzol B (Tel-Test Inc.) according to the manufacturer's protocol. RNA was electrophoresed in 1.2% agarose-formaldehyde gel and transferred to Duralon-UV membranes using 10×SSC. The membranes were probed at 42° C. with a random-primed, radiolabeled 1-kb fragment from the Hind III and NeoI digests of PAI-1 cDNA and glyceraldehyde-3-phosphate dehydrogenase (“GAPDH”) cDNA. The blots were washed with 0.1×SSC containing 0.1% SDS at room temperature.
# [4] = target: T1, α2-macroglobulin (Homo sapiens, UniProt P01023); settings: Ref. 22; cited from earlier work
# T1 sequence (P01023 24-1474): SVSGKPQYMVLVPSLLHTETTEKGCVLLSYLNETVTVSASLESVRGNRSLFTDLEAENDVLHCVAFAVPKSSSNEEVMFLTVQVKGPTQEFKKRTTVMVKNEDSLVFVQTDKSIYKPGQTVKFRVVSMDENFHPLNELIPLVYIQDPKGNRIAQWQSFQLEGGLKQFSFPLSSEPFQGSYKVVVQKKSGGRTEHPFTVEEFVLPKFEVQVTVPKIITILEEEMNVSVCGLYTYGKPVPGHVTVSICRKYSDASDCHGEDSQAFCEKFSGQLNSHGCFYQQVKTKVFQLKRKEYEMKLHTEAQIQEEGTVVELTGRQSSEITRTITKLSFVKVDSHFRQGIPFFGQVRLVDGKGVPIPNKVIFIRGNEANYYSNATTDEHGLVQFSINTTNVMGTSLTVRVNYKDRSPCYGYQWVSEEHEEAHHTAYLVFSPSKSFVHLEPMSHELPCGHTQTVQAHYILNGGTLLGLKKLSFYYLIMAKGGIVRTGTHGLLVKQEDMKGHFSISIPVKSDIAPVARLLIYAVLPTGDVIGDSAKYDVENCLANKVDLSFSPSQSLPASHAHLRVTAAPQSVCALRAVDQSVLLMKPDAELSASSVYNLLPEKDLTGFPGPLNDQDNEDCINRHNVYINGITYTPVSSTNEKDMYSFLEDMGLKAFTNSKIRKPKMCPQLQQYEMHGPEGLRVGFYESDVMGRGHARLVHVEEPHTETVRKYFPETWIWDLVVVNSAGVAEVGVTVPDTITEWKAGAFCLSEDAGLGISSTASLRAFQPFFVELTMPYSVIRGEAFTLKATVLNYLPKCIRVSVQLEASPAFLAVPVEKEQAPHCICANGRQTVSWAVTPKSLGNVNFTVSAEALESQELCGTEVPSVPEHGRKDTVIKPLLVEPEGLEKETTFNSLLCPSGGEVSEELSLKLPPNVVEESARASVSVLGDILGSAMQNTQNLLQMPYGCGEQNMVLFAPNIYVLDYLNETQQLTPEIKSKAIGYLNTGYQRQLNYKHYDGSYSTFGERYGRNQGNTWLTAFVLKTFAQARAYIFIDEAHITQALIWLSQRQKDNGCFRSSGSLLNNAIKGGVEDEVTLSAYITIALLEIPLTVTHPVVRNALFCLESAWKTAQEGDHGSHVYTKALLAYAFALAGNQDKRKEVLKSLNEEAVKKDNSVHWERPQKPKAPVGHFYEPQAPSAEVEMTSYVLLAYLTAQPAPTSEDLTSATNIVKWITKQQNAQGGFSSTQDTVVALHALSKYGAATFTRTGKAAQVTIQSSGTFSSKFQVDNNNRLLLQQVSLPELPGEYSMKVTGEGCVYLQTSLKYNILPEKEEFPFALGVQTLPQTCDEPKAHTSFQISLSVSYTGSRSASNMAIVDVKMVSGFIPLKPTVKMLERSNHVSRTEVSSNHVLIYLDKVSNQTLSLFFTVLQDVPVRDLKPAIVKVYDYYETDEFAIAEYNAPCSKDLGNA
sequence,measurement,setting,value
ANFCLGPCPYIWSLDTQYSKVLALY [peptide β1^25 (41-65)],inhibition of 125I-TGF-β1 binding to TGF-β receptors,[1],completely inhibited
same,blocking of DNA synthesis inhibition induced by TGF-β1,"[2]; 0.025 ρM and 0.25 ρM TGF-β1, 18 μM peptide",completely blocked
same,"blocking of TGF-β1-induced growth inhibition, dose dependence","[2]; 0.25 ρM TGF-β1, various concentrations of peptide",concentration-dependent manner
same,blocking of PAI-1 expression stimulated by TGF-β1,[3],completely blocked
same,"complex formation between α2-macroglobulin and growth factors, cytokines and hormones",[4],block complex formation
